Test results published in patent publication US20220089568A1 (Janssen Biotech, Inc., priority 2019, published 2022).

Columns and labels:
human DHODH = molecular target: T1, human DHODH (Homo sapiens, UniProt Q02127); assay: DHODH Enzymatic Assay; assay type: biochemical; conditions: purified human DHODH; DCIP absorbance, end-point mode
T1 construct: purchased Proteros PR-0044
Protocol: To detect DHODH enzyme activities, dichloroindophenol (DCIP) is added as the final electron acceptor in the assay. DCIP can accept electrons from the reduced coenzyme Q generated in the assay, or from dihydroorotate (DHO) via FMN by binding presumably to the ubiquinone pocket. […] The assay buffer contained […], pH 7.5, 150 mM NaCl, 0.5 mM EDTA, and 0.1% Triton X-100 in MilliQ water. Substrate consisting of 20 mM DHO, 5 mM CoQ6, and 1 mM DCIP in assay buffer, initiates the reaction. […] Absorbance measurements were obtained using the BMG Phera Star plate-reading spectrophotomer. Purified human DHODH was purchased from Proteros (cat. No. PR-0044). Chemicals were purchased from Sigma-Aldrich, Teknova, and Avanti Polar Lipids. Liquid handling was performed using Labcyte Echo and Formulatrix Tempest.

MOLM-13 cells = assay: MOLM-13 Cellular Assay; assay type: cell-based; conditions: Homo sapiens, 72 hours exposure, cell viability by CellTiter-Glo
Protocol: The day prior to assay set-up, cells were pelleted, resuspended in fresh media, counted, and cells were plated at 0.4×10^6 cell/mL in a T150 flask. […] Cells were exposed to different concentrations of test compounds at 37° C., 5% CO2 for 72 hours immediately after seeding.

T1 sequence (Q02127 whole entry): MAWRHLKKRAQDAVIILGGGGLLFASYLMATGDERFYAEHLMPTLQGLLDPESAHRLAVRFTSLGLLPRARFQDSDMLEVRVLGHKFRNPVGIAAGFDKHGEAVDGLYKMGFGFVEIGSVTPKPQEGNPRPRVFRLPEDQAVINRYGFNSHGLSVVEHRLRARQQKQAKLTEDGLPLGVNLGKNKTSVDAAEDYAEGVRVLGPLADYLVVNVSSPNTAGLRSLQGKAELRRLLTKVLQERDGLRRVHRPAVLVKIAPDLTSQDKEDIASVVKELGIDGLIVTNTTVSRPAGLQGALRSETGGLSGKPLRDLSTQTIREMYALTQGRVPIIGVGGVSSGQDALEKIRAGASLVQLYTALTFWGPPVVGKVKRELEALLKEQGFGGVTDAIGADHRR

EC50 (human DHODH) [nM] | EC50 (MOLM-13 cells) [nM] | Structure (SMILES)
19.2 | > 100 | CCn1c(CO)nn(-c2nc(O[C@@H](C)C(F)(F)F)c(C(=O)Nc3cc(C#N)cnc3Cl)cc2F)c1=O [Example 75, (S)-N-(2-Chloro-5-cyanopyridin-3-yl)-6-(4-ethyl-3-(hydroxymethyl)-5-oxo-4,5-dihydro-1H-1,2,4-triazol-1-yl)-5-fluoro-2-((1,1,1-trifluoropropan-2-yl)oxy)nicotinamide]
0.382 | 0.32 | CCn1c(CF)nn(-c2nc(O[C@@H](C)C(F)(F)F)c(C(=O)Nc3c(C)n[nH]c3Cl)cc2F)c1=O [Example 96, N-(5-Chloro-3-methyl-1H-pyrazol-4-yl)-6-[4-ethyl-3-(fluoromethyl)-5-oxo-1,2,4-triazol-1-yl]-5-fluoro-2-[(1S)-2,2,2-trifluoro-1-methyl-ethoxy]pyridine-3-carboxamide]
144 | > 100 | CCn1c(CO)nn(-c2nc(O[C@@H](C)C(F)(F)F)c(C(=O)Nc3c(C)ccn(C)c3=O)cc2F)c1=O [Example 53, N-(1,4-Dimethyl-2-oxo-2,3-dihydro-1l4-pyridin-3-yl)-6-(4-ethyl-3-(hydroxymethyl)-5-oxo-4,5-dihydro-1H-1,2,4-triazol-1-yl)-5-fluoro-2-(((S)-1,1,1-trifluoropropan-2-yl)oxy)nicotinamide]
1.5 | 445 | CCn1c(CO)nn(-c2nc(O[C@@H](C)C(F)(F)F)c(C(=O)Nc3c(Cl)c[nH]c(=O)c3Cl)cc2F)c1=O [Example 22, (S)-N-(3,5-Dichloro-2-oxo-1H-pyridin-4-yl)-6-[4-ethyl-3-(hydroxymethyl)-5-oxo-1,2,4-triazol-1-yl]-5-fluoro-2-[(1S)-2,2,2-trifluoro-1-methyl-ethoxy]pyridine-3-carboxamide]
5.2 | 6.9 | CCn1c(CO)nn(-c2nc(O[C@@H](C)C(F)(F)F)c(C(=O)Nc3ncccc3Cl)cc2F)c1=O [Example 54, (S)-N-(3-Chloropyridin-2-yl)-6-(4-ethyl-3-(hydroxymethyl)-5-oxo-4,5-dihydro-1H-1,2,4-triazol-1-yl)-5-fluoro-2-((1,1,1-trifluoropropan-2-yl)oxy)nicotinamide]
4.6 | 5.2 | CCn1c(CO)nn(-c2nc(O[C@@H](C)C(F)(F)F)c(C(=O)Nc3nc(OC)ccc3F)cc2F)c1=O [Example 56, (S)-6-(4-Ethyl-3-(hydroxymethyl)-5-oxo-4,5-dihydro-1H-1,2,4-triazol-1-yl)-5-fluoro-N-(3-fluoro-6-methoxypyridin-2-yl)-2-((1,1,1-trifluoropropan-2-yl)oxy)nicotinamide]
13 | 68.9 | CCn1c(CO)nn(-c2nc(O[C@@H](C)C(F)(F)F)c(C(=O)Nc3cc(Cl)cnc3C)cc2F)c1=O [Example 52]
4.1 | 1.25 | Cc1n[nH]c(Cl)c1NC(=O)c1cc(F)c(-n2nc(CF)n(CCO)c2=O)nc1O[C@@H](C)C(F)(F)F [Example 115, N-(5-Chloro-3-methyl-1H-pyrazol-4-yl)-5-fluoro-6-[3-(fluoromethyl)-4-(2-hydroxyethyl)-5-oxo-1,2,4-triazol-1-yl]-2-[(1S)-2,2,2-trifluoro-1-methyl-ethoxy]pyridine-3-carboxamide]
> 33 | 48 | CCn1c(CO)nn(-c2nc(O[C@@H](C)C(F)(F)F)c(C(=O)Nc3c(OC)ncnc3OC)cc2F)c1=O [Example 94, N-(4,6-Dimethoxypyrimidin-5-yl)-6-[4-ethyl-3-(hydroxymethyl)-5-oxo-1,2,4-triazol-1-yl]-5-fluoro-2-[(1S)-2,2,2-trifluoro-1-methyl-ethoxy]pyridine-3-carboxamide]
> 100 | 17.3 | CCn1c(CO)nn(-c2nc(O[C@@H](C)C(F)(F)F)c(C(=O)Nc3c(OC)cc(C)nc3C)cc2F)c1=O [Example 103, 6-[4-ethyl-3-(hydroxymethyl)-5-oxo-1,2,4-triazol-1-yl]-5-fluoro-N-(4-methoxy-2,6-dimethyl-3-pyridyl)-2-[(1S)-2,2,2-trifluoro-1-methyl-ethoxy]pyridine-3-carboxamide]
